Assay results from ChEMBL document CHEMBL4043168, “The design and SAR of a novel series of 2-aminopyridine based LRRK2 inhibitors” (Bioorg Med Chem Lett, 2017).

Key:
[1] = molecular target: Serine/threonine-protein kinase/endoribonuclease IRE1 (Homo sapiens) (UniProt O75460); assay: Inhibition of IRE1 conserved Lys2 (DLKPHNILISMPNAHGK) in human PBMC at 1 uM
[2] = molecular target: T1, Mitogen-activated protein kinase kinase kinase 5 (Homo sapiens) (UniProt Q99683); assay: Inhibition of MAP3K5 conserved Lys2 (DIKGDNVLINTYSGVLK) in human PBMC at 1 uM
T1 sequence (whole entry): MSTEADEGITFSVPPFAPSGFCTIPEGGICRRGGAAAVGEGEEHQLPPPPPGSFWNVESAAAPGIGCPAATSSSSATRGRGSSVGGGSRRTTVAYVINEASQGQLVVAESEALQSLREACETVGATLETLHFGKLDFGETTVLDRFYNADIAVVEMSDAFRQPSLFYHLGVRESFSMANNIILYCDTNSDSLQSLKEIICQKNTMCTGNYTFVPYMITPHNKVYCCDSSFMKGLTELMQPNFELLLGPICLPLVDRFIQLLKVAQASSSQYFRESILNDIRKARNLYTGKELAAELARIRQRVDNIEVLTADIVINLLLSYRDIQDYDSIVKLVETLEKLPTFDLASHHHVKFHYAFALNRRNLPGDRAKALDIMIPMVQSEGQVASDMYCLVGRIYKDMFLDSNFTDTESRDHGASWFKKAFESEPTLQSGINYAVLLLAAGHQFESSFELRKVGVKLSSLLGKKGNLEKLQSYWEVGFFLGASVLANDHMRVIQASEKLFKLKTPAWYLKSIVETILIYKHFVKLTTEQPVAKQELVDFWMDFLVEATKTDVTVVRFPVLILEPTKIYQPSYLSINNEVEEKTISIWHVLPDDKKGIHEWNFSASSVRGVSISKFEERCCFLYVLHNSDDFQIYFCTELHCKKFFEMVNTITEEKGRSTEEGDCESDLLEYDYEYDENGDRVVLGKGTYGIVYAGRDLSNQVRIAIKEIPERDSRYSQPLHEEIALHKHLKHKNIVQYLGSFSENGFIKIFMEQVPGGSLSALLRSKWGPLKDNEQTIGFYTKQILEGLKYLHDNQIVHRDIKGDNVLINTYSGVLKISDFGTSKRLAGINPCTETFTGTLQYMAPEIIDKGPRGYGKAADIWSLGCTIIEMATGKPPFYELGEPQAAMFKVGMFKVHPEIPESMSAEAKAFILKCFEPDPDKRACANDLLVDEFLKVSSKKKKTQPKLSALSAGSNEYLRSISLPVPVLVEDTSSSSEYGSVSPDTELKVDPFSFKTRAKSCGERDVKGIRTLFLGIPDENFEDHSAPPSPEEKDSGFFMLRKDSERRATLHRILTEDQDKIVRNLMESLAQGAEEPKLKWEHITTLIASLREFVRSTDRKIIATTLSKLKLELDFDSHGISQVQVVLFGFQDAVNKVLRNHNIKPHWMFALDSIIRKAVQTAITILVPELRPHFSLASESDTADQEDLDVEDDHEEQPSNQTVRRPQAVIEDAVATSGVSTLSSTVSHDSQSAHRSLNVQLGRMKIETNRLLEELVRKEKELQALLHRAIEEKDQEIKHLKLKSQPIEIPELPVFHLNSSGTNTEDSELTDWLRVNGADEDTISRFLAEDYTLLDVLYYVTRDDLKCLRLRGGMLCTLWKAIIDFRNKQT

[3] = molecular target: Ribosomal protein S6 kinase alpha-4 (Homo sapiens) (UniProt O75676); assay: Inhibition of MSK2 domain1 conserved Lys2 (DIKLENILLDSNGHVVLTDFGLSK) in human PBMC at 1 uM
Chain of Ribosomal protein S6 kinase alpha-4 (Homo sapiens) (O75676 whole entry, looked up, the tested form may be a part): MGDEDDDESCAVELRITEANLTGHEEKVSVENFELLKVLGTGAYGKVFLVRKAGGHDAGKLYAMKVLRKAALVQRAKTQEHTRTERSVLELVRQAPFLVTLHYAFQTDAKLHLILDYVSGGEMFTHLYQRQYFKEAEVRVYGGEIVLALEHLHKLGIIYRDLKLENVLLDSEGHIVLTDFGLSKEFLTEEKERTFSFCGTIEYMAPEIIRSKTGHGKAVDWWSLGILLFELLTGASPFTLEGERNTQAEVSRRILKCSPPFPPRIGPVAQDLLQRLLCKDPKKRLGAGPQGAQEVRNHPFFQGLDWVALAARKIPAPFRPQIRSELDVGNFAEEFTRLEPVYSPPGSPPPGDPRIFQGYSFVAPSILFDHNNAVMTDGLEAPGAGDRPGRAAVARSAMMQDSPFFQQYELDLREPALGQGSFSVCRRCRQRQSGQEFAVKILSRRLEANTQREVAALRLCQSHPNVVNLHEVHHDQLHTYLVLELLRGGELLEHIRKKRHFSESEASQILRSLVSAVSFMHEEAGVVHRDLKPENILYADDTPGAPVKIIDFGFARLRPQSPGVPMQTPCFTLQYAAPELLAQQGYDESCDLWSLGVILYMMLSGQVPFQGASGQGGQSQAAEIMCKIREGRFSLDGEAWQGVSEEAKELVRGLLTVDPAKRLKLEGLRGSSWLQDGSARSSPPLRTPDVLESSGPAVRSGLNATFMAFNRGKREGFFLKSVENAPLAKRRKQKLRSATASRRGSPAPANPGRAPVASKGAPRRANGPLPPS

[4] = molecular target: Receptor-interacting serine/threonine-protein kinase 3 (Homo sapiens) (UniProt Q9Y572); assay: Inhibition of RIPK3 conserved Lys2 (DLKPSNVLLDPELHVK) in human PBMC at 1 uM
Chain of Receptor-interacting serine/threonine-protein kinase 3 (Homo sapiens) (Q9Y572 whole entry, looked up): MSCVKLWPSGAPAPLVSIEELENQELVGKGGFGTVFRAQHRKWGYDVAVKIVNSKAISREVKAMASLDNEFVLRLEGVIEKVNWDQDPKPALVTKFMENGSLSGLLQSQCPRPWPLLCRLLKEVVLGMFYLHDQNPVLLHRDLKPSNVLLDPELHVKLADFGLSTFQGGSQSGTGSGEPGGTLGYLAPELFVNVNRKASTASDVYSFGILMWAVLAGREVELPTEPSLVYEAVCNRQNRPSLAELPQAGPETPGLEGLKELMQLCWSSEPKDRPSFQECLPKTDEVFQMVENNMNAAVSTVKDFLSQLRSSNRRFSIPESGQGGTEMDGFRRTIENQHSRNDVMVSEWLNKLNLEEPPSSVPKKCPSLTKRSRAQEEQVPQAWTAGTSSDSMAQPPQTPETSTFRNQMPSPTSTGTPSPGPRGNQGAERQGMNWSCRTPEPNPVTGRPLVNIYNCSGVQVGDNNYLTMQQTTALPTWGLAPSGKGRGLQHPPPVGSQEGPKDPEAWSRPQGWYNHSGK

[5] = molecular target: T2, Serine/threonine-protein kinase ULK3 (Homo sapiens) (UniProt Q6PHR2); assay: Inhibition of ULK3 conserved Lys1 (EVVAIKCVAK) in human PBMC at 1 uM; details: pooled result: one value given for 4 cell lines, strains, targets or settings
T2 sequence (whole entry): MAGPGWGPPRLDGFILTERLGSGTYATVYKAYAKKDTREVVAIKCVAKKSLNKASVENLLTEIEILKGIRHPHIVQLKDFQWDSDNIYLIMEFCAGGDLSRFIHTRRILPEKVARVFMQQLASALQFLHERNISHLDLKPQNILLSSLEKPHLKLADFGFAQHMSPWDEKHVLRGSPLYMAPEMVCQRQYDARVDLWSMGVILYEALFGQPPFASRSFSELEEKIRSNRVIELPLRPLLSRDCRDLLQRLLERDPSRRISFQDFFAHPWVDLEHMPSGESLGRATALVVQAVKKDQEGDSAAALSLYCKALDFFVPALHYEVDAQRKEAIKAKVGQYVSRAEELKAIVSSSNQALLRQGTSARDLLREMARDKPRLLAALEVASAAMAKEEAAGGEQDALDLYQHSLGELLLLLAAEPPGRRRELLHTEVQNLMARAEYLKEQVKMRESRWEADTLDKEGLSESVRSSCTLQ

[6] = molecular target: Calcium/calmodulin-dependent protein kinase type II subunit gamma (Homo sapiens) (UniProt Q13555); assay: Inhibition of CaMK2g labeling at conserved Lys2 (DLKPENLLLASK) in human PBMC at 0.1 uM
Chain of Calcium/calmodulin-dependent protein kinase type II subunit gamma (Homo sapiens) (Q13555 whole entry): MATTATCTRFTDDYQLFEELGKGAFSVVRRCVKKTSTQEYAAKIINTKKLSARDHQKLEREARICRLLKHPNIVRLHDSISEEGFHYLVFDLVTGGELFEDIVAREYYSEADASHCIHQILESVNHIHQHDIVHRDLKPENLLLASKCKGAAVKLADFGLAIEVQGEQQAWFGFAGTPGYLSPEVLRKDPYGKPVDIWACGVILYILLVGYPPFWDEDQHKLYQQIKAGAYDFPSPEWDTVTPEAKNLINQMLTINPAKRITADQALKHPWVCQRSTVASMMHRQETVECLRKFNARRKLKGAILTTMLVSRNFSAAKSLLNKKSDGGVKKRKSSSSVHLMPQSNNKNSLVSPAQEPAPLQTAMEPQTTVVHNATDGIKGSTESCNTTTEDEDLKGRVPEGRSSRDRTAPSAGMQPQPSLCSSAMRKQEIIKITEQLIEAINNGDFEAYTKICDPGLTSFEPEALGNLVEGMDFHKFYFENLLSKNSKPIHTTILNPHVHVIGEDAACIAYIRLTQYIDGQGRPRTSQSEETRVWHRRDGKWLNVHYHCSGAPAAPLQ

[7] = molecular target: Glycogen synthase kinase-3 beta (Homo sapiens) (UniProt P49841); assay: Inhibition of GSK3B conserved Lys2 (DIKPQNLLLDPDTAVLK) in human PBMC at 0.1 uM
Chain of Glycogen synthase kinase-3 beta (Homo sapiens) (P49841 whole entry, looked up): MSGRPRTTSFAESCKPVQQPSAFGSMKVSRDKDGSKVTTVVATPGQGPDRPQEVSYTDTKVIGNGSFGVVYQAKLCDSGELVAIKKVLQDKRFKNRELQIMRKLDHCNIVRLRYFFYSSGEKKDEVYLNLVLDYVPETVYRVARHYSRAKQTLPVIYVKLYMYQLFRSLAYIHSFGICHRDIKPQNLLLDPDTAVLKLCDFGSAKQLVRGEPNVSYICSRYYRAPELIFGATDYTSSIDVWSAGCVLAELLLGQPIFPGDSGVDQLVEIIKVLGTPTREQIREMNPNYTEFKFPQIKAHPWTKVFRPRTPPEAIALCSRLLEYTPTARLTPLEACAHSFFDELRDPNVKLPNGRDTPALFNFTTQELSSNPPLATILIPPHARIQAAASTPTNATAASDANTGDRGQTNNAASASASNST

[8] = molecular target: Serine/threonine-protein kinase tousled-like 1 (Homo sapiens) (UniProt Q9UKI8); assay: Inhibition of TLK1 conserved Lys2 (YLNEIKPPIIHYDLKPGNILLVDGTACGEIK) in human PBMC at 0.1 uM
Chain of Serine/threonine-protein kinase tousled-like 1 (Homo sapiens) (Q9UKI8 whole entry): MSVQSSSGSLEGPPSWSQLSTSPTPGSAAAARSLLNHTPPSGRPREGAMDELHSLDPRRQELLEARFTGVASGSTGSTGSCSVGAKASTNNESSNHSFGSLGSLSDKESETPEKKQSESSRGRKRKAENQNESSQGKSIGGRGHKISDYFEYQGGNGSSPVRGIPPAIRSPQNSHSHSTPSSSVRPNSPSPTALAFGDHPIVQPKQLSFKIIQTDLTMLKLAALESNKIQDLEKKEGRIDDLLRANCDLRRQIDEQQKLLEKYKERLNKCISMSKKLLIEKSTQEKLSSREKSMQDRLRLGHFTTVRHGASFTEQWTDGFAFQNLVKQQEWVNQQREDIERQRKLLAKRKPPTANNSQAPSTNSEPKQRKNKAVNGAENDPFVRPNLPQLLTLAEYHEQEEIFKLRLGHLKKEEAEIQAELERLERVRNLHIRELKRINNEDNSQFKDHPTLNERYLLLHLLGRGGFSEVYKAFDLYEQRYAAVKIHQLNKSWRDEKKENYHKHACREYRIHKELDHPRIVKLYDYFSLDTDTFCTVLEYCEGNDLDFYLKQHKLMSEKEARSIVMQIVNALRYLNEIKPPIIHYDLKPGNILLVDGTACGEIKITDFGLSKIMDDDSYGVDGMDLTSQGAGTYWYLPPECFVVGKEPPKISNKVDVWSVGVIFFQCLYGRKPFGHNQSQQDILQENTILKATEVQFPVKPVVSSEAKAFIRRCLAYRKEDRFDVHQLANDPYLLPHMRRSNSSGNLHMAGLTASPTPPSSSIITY

[9] = Inhibition of GCK conserved Lys1 (DTVTSELAAVKIVK) in human PBMC at 1 uM

Chain of Serine/threonine-protein kinase/endoribonuclease IRE1 (Homo sapiens) (O75460 19-977 limits assumed): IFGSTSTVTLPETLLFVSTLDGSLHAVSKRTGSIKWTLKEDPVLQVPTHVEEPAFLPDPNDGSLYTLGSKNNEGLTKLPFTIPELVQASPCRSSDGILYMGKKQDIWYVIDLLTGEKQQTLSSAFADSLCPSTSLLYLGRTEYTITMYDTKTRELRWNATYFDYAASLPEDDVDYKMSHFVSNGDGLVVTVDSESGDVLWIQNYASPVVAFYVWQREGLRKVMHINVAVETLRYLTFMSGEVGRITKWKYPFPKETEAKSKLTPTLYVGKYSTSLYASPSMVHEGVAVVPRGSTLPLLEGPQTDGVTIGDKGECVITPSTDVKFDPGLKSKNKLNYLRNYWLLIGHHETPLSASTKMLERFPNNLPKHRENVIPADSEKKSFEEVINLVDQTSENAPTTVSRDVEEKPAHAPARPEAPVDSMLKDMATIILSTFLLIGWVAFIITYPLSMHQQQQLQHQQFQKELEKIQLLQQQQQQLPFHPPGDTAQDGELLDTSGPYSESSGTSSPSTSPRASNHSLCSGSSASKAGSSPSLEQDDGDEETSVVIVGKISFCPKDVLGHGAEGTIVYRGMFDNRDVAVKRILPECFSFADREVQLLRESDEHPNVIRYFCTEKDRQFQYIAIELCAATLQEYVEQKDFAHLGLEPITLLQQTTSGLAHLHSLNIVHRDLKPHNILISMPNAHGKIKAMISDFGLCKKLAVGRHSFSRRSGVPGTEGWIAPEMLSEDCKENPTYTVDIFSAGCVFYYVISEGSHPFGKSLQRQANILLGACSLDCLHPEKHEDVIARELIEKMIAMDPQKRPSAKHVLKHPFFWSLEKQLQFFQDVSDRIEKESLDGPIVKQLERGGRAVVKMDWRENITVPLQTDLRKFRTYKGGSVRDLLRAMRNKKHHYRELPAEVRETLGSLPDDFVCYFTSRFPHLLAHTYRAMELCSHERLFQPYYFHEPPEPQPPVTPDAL

`CC(C)n1cc(-c2cc(-c3ccc(CN4CCOCC4)cc3)cnc2N)nn1` gave an inhibition [1] of 26.6%, an inhibition [2] of 25.3% and an inhibition [3] of 10.3%. For the same compound, the inhibition [4] was -7.3%, the inhibition [5] was 23.5% and the inhibition [6] was -7.5%. The inhibition [7] was -10%, the inhibition [8] was -3.1% and the inhibition [9] was 0.5%.
